This is an account of results in patent US20140171424A1, “HYPERTENSION AND HYPERURICEMIA” (ARDEA BIOSCIENCES, INC., priority 2011, published 2014).

Each structure is given as a SMILES string. pEC50, pIC50: −log10 of the molar value. Several values for one entry are separate records, joined by “and”; a condition that tells them apart may be missing. Identical values can stand only once. Like-named read-outs stand apart in the source and are kept apart here.

One test has as its target T1, URAT1 (Homo sapiens, UniProt Q96S37).
T1 construct: expressed in transfected cells; host or cells: 293T cells
T1 sequence (Q96S37 1-553): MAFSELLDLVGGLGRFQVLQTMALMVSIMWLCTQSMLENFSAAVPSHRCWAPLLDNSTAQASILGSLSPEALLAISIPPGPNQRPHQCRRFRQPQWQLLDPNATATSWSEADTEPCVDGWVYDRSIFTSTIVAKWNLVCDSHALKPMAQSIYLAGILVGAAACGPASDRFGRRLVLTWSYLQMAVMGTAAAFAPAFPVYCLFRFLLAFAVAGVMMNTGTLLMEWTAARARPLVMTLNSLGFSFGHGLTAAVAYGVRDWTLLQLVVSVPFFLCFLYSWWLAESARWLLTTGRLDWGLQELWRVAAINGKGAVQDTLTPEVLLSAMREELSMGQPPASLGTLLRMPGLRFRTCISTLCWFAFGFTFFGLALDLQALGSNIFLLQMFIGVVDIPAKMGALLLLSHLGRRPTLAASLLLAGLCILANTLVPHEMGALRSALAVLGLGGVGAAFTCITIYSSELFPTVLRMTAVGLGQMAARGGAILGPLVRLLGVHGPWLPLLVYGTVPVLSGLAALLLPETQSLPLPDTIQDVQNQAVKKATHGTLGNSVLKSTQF
The test can be described thus: URAT1 UA transport in 293T cells. The format is cell-based. As to conditions: 293T cells expressing URAT1 and/or OAT4; varying concentrations. As to the method:
(§1) For cultured cells, HEK293 cells stably expressing the transporters were produced through transfection of DNA constructs carrying the transporters, antibiotic selection, and clonal selection of clones with high transporter activity. Alternatively, cells transiently expressing the transporters were produced by reverse transfection of HEK293T cells. Transfectants were plated at high density onto poly-L-lysine coated multiwell plates and assayed 1-2 days later.

A short description of test [1]: Clinical phase 2 study in gout patients not adequately responding to allopurinol (sUA <6 mg/dL responders). The class given is in vivo, human. As to conditions: Week 4; Lesinurad added to allopurinol regimen; patients receiving thiazide diuretic. The method, then: FIG. 10A represents a schematic of a clinical phase 2 study design. The study was a 4-week, double-blind, placebo-controlled clinical trial in 208 gout patients who were not adequately responding to allopurinol with serum urate (sUA)≧6 mg/dL while receiving a stable dose of allopurinol for at least 6 weeks. One of three doses of Lesinurad or matching placebo was added to the patients allopurinol regimen. The primary endpoint of the study was mean reduction in sUA at Week 4, with the key secondary endpoint the proportion of subjects with sUA <6.0 mg/dL at Week 4. A small number of patients in this trial received a thiazide diuretic during the treatment period; their response rates were compared to those patients not receiving concomitant thiazide diuretics and the results presented in FIG. 10B.

The target in test [2] is T2, OAT4 (Homo sapiens, UniProt Q9NSA0).
T2 sequence (Q9NSA0 1-550): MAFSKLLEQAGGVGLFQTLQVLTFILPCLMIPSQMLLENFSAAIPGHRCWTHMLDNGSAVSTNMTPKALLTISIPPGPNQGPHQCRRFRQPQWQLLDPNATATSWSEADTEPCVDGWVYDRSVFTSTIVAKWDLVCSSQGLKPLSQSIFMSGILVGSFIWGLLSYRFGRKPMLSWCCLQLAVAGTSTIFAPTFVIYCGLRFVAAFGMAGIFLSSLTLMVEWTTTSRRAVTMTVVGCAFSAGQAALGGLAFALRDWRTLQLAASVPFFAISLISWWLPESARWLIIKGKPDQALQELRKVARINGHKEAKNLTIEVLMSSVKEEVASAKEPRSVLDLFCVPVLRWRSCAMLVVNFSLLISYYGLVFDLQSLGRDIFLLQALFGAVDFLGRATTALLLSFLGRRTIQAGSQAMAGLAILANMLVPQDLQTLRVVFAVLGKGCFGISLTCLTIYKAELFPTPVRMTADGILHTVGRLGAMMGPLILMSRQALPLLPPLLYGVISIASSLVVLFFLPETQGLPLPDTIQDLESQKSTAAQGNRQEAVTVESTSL
To be noted: read-out: IC50, inhibition of OAT4 uptake of 3H-estrone sulfate; cited from earlier work.

In test [3] the target is T2, OAT4. The test can be described thus: OAT4 urate (14C-uric acid) transport in transfected HEK293/293T cells. To be noted: for OAT4 transport activity of 14C-uric acid: UA 100 μM, drug 100 μM, 5 min incubation, OAT4-expressing HEK293 cells. More on the design: expressed in transfected cells. The format is cell-based. As to the method:
as §1

Test [4] concerns the target T2, OAT4. The test can be described thus: OAT4 transport of 6-carboxyfluorescein (CF) in transfected HEK293/HEK293T cells. The format is cell-based. More on the design: expressed in transfected cells. To be noted: for OAT4 transport activity of 6-carboxyfluorescein: CF 5 μM, drug 100 μM, 5 min incubation, OAT4-expressing HEK293 cells. As to the method:
(§2) For cultured cells, HEK293 cells stably expressing the transporters were produced through transfection of DNA constructs carrying the transporters, antibiotic selection, and clonal selection of clones with high transporter activity. Alternatively, cells transiently expressing the transporters were produced by reverse transfection of HEK293T cells. Transfectants were plated at high density onto poly-L-lysine coated multiwell plates and assayed 1-2 days later. Results were similar for stable and transient expressing cells.

In test [5] the target is T2, OAT4. To be noted: cited from earlier work; for effect on OAT4 uric acid transport activity: J. Am. Soc. Nephrol. 18:430 and 18:3101, 2007.
Test [6] has as its target T2, OAT4. The experiment in a line: 3H-Estrone sulphate (ES) transport in 293T cells stably expressing OAT4. The format is cell-based. More on the design: expressed in transfected cells. To be noted: 1 mM HCTZ, varying concentrations of Lesinurad. As to the method:
as §2

`O=C(O)CSc1nnc(Br)n1-c1ccc(C2CC2)c2ccccc12` [Lesinurad, 2-(5-bromo-4-(4-cyclopropylnaphthalen-l-yl)-4H-1,2,4-triazol-3-ylthio)acetic acid]: the “percent inhibition of UA transport, URAT1” value on URAT1 was “inhibits URAT1 and OAT4 with similar potency”. The “proportion of patients with sUA below 6 mg/dL, patients taking diuretics vs not” value in test [1] is “patients receiving diuretics had responded well to Lesinurad”.

As a reminder, the pIC50 is the IC50 on a negative log10 scale, so that one unit is a factor of ten. `CCc1oc2cc(O)ccc2c1C(=O)c1cc(Br)c(O)c(Br)c1` [6-hydroxybenzbromarone]: on OAT4 [2], the pIC50 was 5.49.

For `Oc1ncnc2[nH]ncc12` [allopurinol], the “OAT4 transport activity of 14C-uric acid” value at OAT4 [3] is “do not inhibit OAT4 transport activity”. Also, the “OAT4 transport activity of 6-carboxyfluorescein” value on OAT4 [4] is “do not inhibit OAT4 transport activity”.

For `O=c1[nH]c(=O)c2c[nH]nc2[nH]1` [oxypurinol], the “OAT4 transport activity of 14C-uric acid” value at OAT4 [3] is reported as “do not inhibit OAT4 transport activity”. Besides, at OAT4 [4], the “OAT4 transport activity of 6-carboxyfluorescein” value was “do not inhibit OAT4 transport activity”.

As for `Cc1cccc(Nc2ccncc2S(=O)(=O)NC(=O)NC(C)C)c1` [torasemide], the “effect on OAT4 uric acid transport activity” value at OAT4 [5] was “increase OAT4 uric acid transport activity”.

Usually pEC50 stands for the negative decadic logarithm of the EC50, by convention in mol/L. On to `O=c1[nH]c(=O)c2[nH]c(=O)[nH]c2[nH]1` [uric acid], for which the pEC50 on OAT4 [4] (HEK293T cells transiently transfected with OAT4, CF substrate, 0, 0.5, 1, 2 nM cold uric acid, read-out: EC50 of cold uric acid as competitive substrate for OAT4 of CF) was 3.05 and ~3.05.

With `NS(=O)(=O)c1cc2c(cc1Cl)NCNS2(=O)=O` [Hydrochlorothiazide, 6-Chloro-1,1-dioxo-3,4-dihydro-2H-1,2,4-benzothiadiazine-7-sulfonamide], the “effect of HCTZ on Lesinurad-mediated inhibition of OAT4 ES transport” value at OAT4 [6] is “no effect on Lesinurad-mediated inhibition of OAT4 transporter activity”. Also, the “effect on OAT4 uric acid transport activity” value on OAT4 [5] is “increase OAT4 uric acid transport activity”. Moreover, the “increase of OAT4-mediated uric acid uptake” value on OAT4 [5] (one study) is 2.6 fold.

As for `CCc1oc2ccccc2c1C(=O)c1cc(Br)c(O)c(Br)c1` [Benzbromarone], the pIC50 at OAT4 [3] (varying amounts of drug, read-out: OAT4 IC50 (OAT4 urate transport, cpm)) is 5.00.
